The record followed here is patent US20250236614A1, “BICYCLIC TETRAHYDROAZEPINE DERIVATIVES” (Hoffmann-La Roche Inc., priority 2022, published 2025).

In one assay the target is DGK α kinase (Homo sapiens, UniProt P23743). In words: In vitro DGK inhibition assay (ADP Glo) run by Reaction Biology Corp., DGK alpha. The format is biochemical. As to conditions: isomer A, 2 nM kinase, 50 μM ATP, 500 uM DLG, 10-dose, 3-fold dilution starting at 1 μM, read-out: DGKalpha IC50. As for the experimental part: DGK α and ζ kinase use ATP to phosphorylate the substrate 1,2-dilauroyl-sn-glycerol (DLG). ATP is converted to ADP as a result of this enzymatic reaction.
After the kinase reaction, an ATP-depletion reagent is added to terminate the kinase reaction and deplete any remaining ATP, leaving only ADP. Second, a detection reagent is added to simultaneously convert ADP to ATP and allow the newly synthesized ATP to be converted to light using a coupled luciferase/luciferin reaction.
DGK α and ζ kinase ADP Glo assays were ran by Reaction Biology Corp., 1 Great Valley Parkway, Suite 2, Malverm, 19355, PA, USA. Information provided by the service provider are the following: DGK α and ζ kinases were used at 2 nM final concentration. Reactions were carried out at 50 μM ATP. 500 uM of the substrate DLG (Dilauroyl-sn-glycerol) was used. Compounds were received at 10 mM DMSO stock solution and were tested in 10-dose IC50 duplicate with 3-fold serial dilution starting at 1 μM. A control compound, Calphostin C, was tested in 10-dose IC50 with 3-fold serial dilution starting at 100 μM.
For orientation: In ADP-Glo the light output rises with the ADP produced.

Another assay relates to MV-3 RFP cells. In words: T-cell TCB MV3 killing assay. As to conditions: isomer A; for EC50: primary human T-cells + MCSP-TCB on MV-3 RFP cells, imaging over 120 hours, read-out: MSCP TCB killing MV-3 cells 5 d EC50; for Emax: Homo sapiens, MV-3, 120 h, read-out: MSCP TCB killing MV-3 cells 5 d Emax (%). The format is cell-based, human. As for the experimental part:
All culturing steps are executed at 5% CO2, 37° C. and 95% humidity.
MV-3 RFP cells are cultured in MV-3 medium (DMEM+10% FBS, 1× PenStrep and 0.5 μg/mL Puromycin) for at least 3 weeks. Cultured MV-3 cells at 80% confluency are washed once with PBS−− and trypsinized until detached. Cells are then counted and resuspended to 1*10^5 cells/mL in T-cell medium (RPMI 1640+5% human serum+1 mM Sodium Pyruvate+50 μM 2-mercaptoethanol and 1× Pen-Strep). Cells are seeded with 100 μL/well into a 96-well plate (TTP, #92696), and placed for 40 minutes without moving at room temperature in order to achieve evenly distributed attachment of cells. Plates are then incubated until further use.
On the next day, expanded primary human T-cells are thawed and resuspended in T-cell medium to 4*10^6 cells/mL. For 3 hours, they are cultured in a 6-well plate with 6 mL per well at maximum. After culturing the T-cells, they are filtered through a cell strainer (Miltenyi Biotech, #130-041-407), counted again, and cell concentration is adjusted to 2*10^6 cells/mL.
MCSP-TCB or PBS are pre-diluted in T-cell medium (concentration depending on T-cell donor), 4 times more concentrated than the end-concentration. 60 μL/well of pre-dilutions are then distributed into a round bottom plate (Costar, #3799) according to plate layout. Compounds are added in a 9 pt dose response with the Tecan D300e Digital Dispenser, as well 4 times more concentrated than the end-concentration. DMSO concentration of all wells is adjusted to 0.8%, resulting in 0.2% as final concentration.
60 μL per well of T-cell suspension are added to the prepared round bottom plate and resuspended with a manual multichannel. 100 μL/well of the resuspended T-cell suspension including treatments are then transferred cautiously to the over-night cultured MV-3 cells according to plate layout. 100 μL T-cell medium only is added to the outer MV-3 wells only. Final compound DR is starting at 20 μM with a dilution factor of 3.333. Final TCB concentration is between […] and was determined for each T-cell donor individually by running TCB titrations. For each donor, a TCB concentration was chosen which corresponds to 10-20% of MV3 baseline cell killing in the absence of compound treatment. Positive control is the reference compound A1 which is added in a DR, as well as additional wells with only 20 μM. 20 μM of reference compound A1 represent the positive stimulator control, TCB only (DMSO wells) the neutral control.
After transfer of T-cells with treatment pre-dilutions, MV-3 cells are imaged by time-lapse microscopy using IncucyteZOOM™ (Essen BioScience, MI, USA). Imaging is performed every 3 hours for a total of 120 hours (10× objective, phase and red image channels, acquisition time 400 ms, Green/Red 4614 optical module). RFP object count per well is analysed in the IncucyteZOOM™ Software (Version 2019B Rev2) with a mask that was previously created and optimized for MV-3 cells. Raw data is exported as object count/well and values are normalized as % TCL compared to wells with MV-3 only, representing 100% growth and therefore 0% TCL.
Calculated 00 TCL values are analysed in Genedata Screener using Roche Normalization PCT_POS_CTRL with MCSP-TCB only set as Neutral Control and 20 μM of the reference compound A1 set as Stimulator Control/100%.
Induced TCL by compounds without TCB treatment or toxicity (observed in the PBS condition) were be flagged.

The mark [1] stands for this setting: 20 μM reference compound A1 = 100%, MCSP-TCB only neutral control.

Chain of DGK α kinase (P23743 whole entry): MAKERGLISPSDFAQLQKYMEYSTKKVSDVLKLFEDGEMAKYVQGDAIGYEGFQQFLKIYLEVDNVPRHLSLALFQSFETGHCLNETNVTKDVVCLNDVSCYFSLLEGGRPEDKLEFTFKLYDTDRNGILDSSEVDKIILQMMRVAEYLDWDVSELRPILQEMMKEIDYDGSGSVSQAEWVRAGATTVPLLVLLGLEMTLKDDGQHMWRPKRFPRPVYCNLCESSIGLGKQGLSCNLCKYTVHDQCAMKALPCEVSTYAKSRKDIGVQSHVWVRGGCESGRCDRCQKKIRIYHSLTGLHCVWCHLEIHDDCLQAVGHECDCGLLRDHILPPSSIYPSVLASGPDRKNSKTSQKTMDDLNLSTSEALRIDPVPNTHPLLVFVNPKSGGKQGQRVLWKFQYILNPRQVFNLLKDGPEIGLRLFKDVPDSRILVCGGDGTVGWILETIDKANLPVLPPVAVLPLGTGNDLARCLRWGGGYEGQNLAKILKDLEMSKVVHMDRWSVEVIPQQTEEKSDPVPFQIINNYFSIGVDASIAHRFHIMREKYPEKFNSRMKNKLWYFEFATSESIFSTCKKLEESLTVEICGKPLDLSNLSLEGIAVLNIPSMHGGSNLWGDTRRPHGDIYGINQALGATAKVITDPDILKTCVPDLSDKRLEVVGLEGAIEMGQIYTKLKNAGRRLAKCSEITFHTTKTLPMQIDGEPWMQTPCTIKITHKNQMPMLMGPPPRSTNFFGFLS

In the case of “2-methyl-2-[5-[(3S)-3-amino-5,5,7-trifluoro-2-oxo-1-[[4-(trifluoromethoxy)phenyl]methyl]-3,4-dihydro-1-benzazepin-8-yl]-1,3,4-oxadiazol-2-yl]propanenitrile and 2-methyl-2-[5-[(3R)-3-amino-5,5,7-trifluoro-2-oxo-1-[[4-(trifluoromethoxy)phenyl]methyl]-3,4-dihydro-1-benzazepin-8-yl]-1,3,4-oxadiazol-2-yl]propanenitrile [Example 2]”, the IC50 – broadly, the midpoint of a concentration-inhibition curve – on DGK α kinase came to 10.5 nM. The “MSCP TCB killing MV-3 cells 5 d Emax (%)” value in the assay on MV-3 RFP cells (setting [1]) is reported as 93%. For the same compound, the EC50 (commonly the concentration at which the effect is half-maximal) in the assay on MV-3 RFP cells came out at 43 nM.
As for `CC(C)(c1nnc(-c2cc3c(cc2F)C(F)(F)CC(N)C(=O)N3Cc2ccc(Oc3ccccc3)cc2)o1)S(C)(=O)=O` (racemic) [Example 5, (3S)-3-amino-5,5,7-trifluoro-8-[5-(1-methyl-1-methylsulfonyl-ethyl)-1,3,4-oxadiazol-2-yl]-1-[(4-phenoxyphenyl)methyl]-3,4-dihydro-1-benzazepin-2-one and (3R)-3-amino-5,5,7-trifluoro-8-[5-(1-methyl-1-methylsulfonyl-ethyl)-1,3,4-oxadiazol-2-yl]-1-[(4-phenoxyphenyl)methyl]-3,4-dihydro-1-benzazepin-2-one], the IC50 at DGK α kinase is 124 nM. Moreover, the Emax (in general, the maximal effect, on the per cent scale that the assay sets) with MV-3 RFP cells (setting [1]) was 130%. For the same compound, the EC50 in the assay on MV-3 RFP cells amounted to 372 nM.
Take `CC(C)(C#N)c1nnc(-c2cc3c(cc2F)C(F)(F)CC(N)C(=O)N3Cc2ccc(-n3cc(C(F)(F)F)cn3)cc2)o1` (racemic) [Example 33, 2-[5-[(3S)-3-amino-5,5,7-trifluoro-2-oxo-1-[[4-[4-(trifluoromethyl)pyrazol-1-yl]phenyl]methyl]-3,4-dihydro-1-benzazepin-8-yl]-1,3,4-oxadiazol-2-yl]-2-methyl-propanenitrile and 2-[5-[(3R)-3-amino-5,5,7-trifluoro-2-oxo-1-[[4-[4-(trifluoromethyl)pyrazol-1-yl]phenyl]methyl]-3,4-dihydro-1-benzazepin-8-yl]-1,3,4-oxadiazol-2-yl]-2-methyl-propanenitrile]: the IC50 at DGK α kinase worked out at 8.2 nM.
Take `COC(F)(c1nnc(-c2cc3c(cc2F)C(F)(F)C[C@H](N)C(=O)N3Cc2ccc(OC(F)(F)F)cc2)o1)C(F)(F)F` (single isomer, unassigned) [Example 4]: in the assay with MV-3 RFP cells (setting [1]), the Emax came to 94%. Further, the EC50 in the assay with MV-3 RFP cells was determined as 69 nM.
Take `CC(C)(C)c1nnc(-c2cc3c(cc2F)C(F)(F)C[C@@H](N)C(=O)N3Cc2ccc(OC3CCCC3)cc2)o1` (single isomer, unassigned) [Example 7]: the 50% inhibitory concentration (IC50) on DGK α kinase turned out to be 70.3 nM.
On to `CC(C)(c1nnc(-c2cc3c(cc2F)C(F)(F)C[C@@H](N)C(=O)N3Cc2ccc(-c3ccc(C(F)(F)F)cn3)cc2)o1)S(C)(=O)=O` (single isomer, unassigned) [Example 8], for which the Emax in the assay with MV-3 RFP cells (setting [1]) was determined as 100%.
As for `COc1ccc(-c2ccc(CN3C(=O)[C@H](N)CC(F)(F)c4cc(F)c(-c5nnc(C(C)(C)C#N)o5)cc43)cc2)cc1` (single isomer, unassigned) [Example 9], on DGK α kinase, the IC50 is 43.6 nM. Also, the Emax with MV-3 RFP cells (setting [1]) was 92%.
Take `COc1ccc(-c2ccc(CN3C(=O)[C@H](N)CC(F)(F)c4cc(F)c(-c5nnc(C(C)(C)S(C)(=O)=O)o5)cc43)cc2)cc1` (single isomer, unassigned) [Example 10]: the IC50 on DGK α kinase turned out to be 93.1 nM.
For `CC(C)(C#N)c1nnc(-c2cc3c(cc2F)C(F)(F)C[C@@H](N)C(=O)N3Cc2ccc(-c3ccc(C(F)(F)F)cn3)cc2)o1` (single isomer, unassigned) [Example 12], the IC50 on DGK α kinase is 108 nM. For the same compound, in the assay on MV-3 RFP cells (setting [1]), the Emax worked out at 103%.
Take `N[C@@H]1CC(F)(F)c2cc(F)c(-c3nnc(N4CCCC4)o3)cc2N(Cc2ccc(-c3noc(C(F)(F)F)n3)cc2)C1=O` (single isomer, unassigned) [Example 14]: the maximal response (Emax) with MV-3 RFP cells (setting [1]) was 113%.
The same measure, in the same setting: for `CC(C)(c1nnc(-c2cc3c(cc2F)C(F)(F)C[C@@H](N)C(=O)N3Cc2ccc(-c3noc(C(F)(F)F)n3)cc2)o1)S(C)(=O)=O` (single isomer, unassigned) [Example 16] the value was 84%; for `N[C@@H]1CC(F)(F)c2cc(F)c(-c3nnc(N4CCOC5(CC5)C4)o3)cc2N(Cc2ccc(-c3noc(C(F)(F)F)n3)cc2)C1=O` (single isomer, unassigned) [Example 17], 105%.
`CC(F)(F)c1ccc(-c2ccc(CN3C(=O)[C@H](N)CC(F)(F)c4cc(F)c(-c5nnc(C(C)(C)C#N)o5)cc43)cc2)nc1` (single isomer, unassigned) [Example 37]: the IC50 on DGK α kinase was 46.2 nM.
Consider `CC(C)(C#N)c1nnc(-c2cc3c(cc2F)C(F)(F)C[C@@H](N)C(=O)N3Cc2ccc(-c3ccc(OC(F)F)cn3)cc2)o1` (single isomer, unassigned) [Example 41], for which, in the assay on MV-3 RFP cells (setting [1]), the Emax worked out at 98%.
